Entries after “also recorded” stand apart in the source; their conditions may differ.
Assays:
Smad1/5/8 = assay: Immunoblot of p- and pan-Smad1/5/8 in HFF; type: cell-based, human; conditions: BMP2 (100ng/mL), 24h
Description: Cell culture: HeLa and C2C12 were cultured in DMEM containing 10% FCS and 1 % PS. HFF was cultured in DMEM containing 15% FCS and 1 %PS. NIH 3T3 was cultured in DMEM containing 10% NCS and 1% PS. The cells were maintained unter 5% CO2 at 37°C in a humidified atmosphere. After 24h preincuabtion in serum-free medium, the cells were treated with various compounds and proteins as indicated in context. Transfection of siRNA oligonuleotide against Smurf1 was reported by Zhu et al (Zhu et al., nature 2006) and synthesized by riboxx and performed using riboxx®FECT reagent according to the manufacturer's instructions. 24h after transfection, the cells were treated with BMP (100ng/mL) and Compound as indicated before lysis.
Western blot:: Cell extracts were homogenized in Urea-Lysis buffer (1mM EDTA,0.5% Triton X-100), 5mM NaF, 6M Urea, 1mM Na3VO4, 10µg/mL Pepstatin, 100µM PMSF and 3µg/mL Aprotinin in PBS). Enhanced chemiluminescence (ECL) Western blot analysis was performed. 20-40µg of total protein was resolved on 10% SDS-PAGE gels and immunoblotted with specific antibodies. Primary antibodies were incubated at a 1:1,000 dilution in TBS (pH 7.5) with 0.1% Tween-20 and 5% BSA/nonfat milk with gentle agitation overnight at 4°C. The proper secondary antibodies were incubated in TBS (pH 7.5) with 5% BSA/nonfat milk and 0.1 % Tween-20 at a 1:5,000 dilution for 1 h at room temperature. […]

ß-Catenin = assay: Immunoblot of non-phosphorylation-ß-Catenin in HeLa cells; type: cell-based, human; conditions: 1 h, BMP2 (100ng/mL), already from 0.1µM
Description: (§1) Western blot:: Cell extracts were homogenized in Urea-Lysis buffer (1mM EDTA,0.5% Triton X-100), 5mM NaF, 6M Urea, 1mM Na3VO4, 10µg/mL Pepstatin, 100µM PMSF and 3µg/mL Aprotinin in PBS). Enhanced chemiluminescence (ECL) Western blot analysis was performed. 20-40µg of total protein was resolved on 10% SDS-PAGE gels and immunoblotted with specific antibodies. Primary antibodies were incubated at a 1:1,000 dilution in TBS (pH 7.5) with 0.1% Tween-20 and 5% BSA/nonfat milk with gentle agitation overnight at 4°C. The proper secondary antibodies were incubated in TBS (pH 7.5) with 5% BSA/nonfat milk and 0.1 % Tween-20 at a 1:5,000 dilution for 1 h at room temperature.
(§2) To assess the effect of E738 on Wnt and Stat3 pathway in mammalian cellular context, HeLa cells were treated with E738 at increasing concentrations for 1 h. Here E804 was used as reference because of its well-known inhibition of Stat3 and Wnt. The antibodies of p-Stat3 and non-phosphorylation-ß-Catenin (NP-ß-Catenin, Ser33/37/Thr41), which can provide a convenient positive band if GSK3B is inhibited, were recruited to substantiated our in vitro results. […] With the stimulation of FCS, we also observed the similar regulation on Stat3 and MAPKs pathways depicted in Fig. 8.

MAPKs (JNK, P38, Erk1/2) = assay: Immunoblot of phosphorylated MAPKs in HeLa cells; type: cell-based, human; conditions: BMP2 (100ng/mL)
Description: as §1
as §2, with “8. […]” for “8.”

healthy cell lines = assay: MTT assay, healthy cell lines; type: cell-based; conditions: non-cancer cell lines
HeLa cells = assay: Growth inhibition of HeLa cells, BMP2 versus FCS; type: cell-based, human
Hek293T cells = assay: (iPS)-Colony formation and EMT in Hek293T; type: cell-based, human
Description: Cell culture: HeLa and Hek293T were cultured in DMEM (PAA) containing 10% FCS (PAA) and 1% PS (PAA). HFF (human foreskin fibroblasts) were cultured in DMEM containing 15% FCS and 1%PS. Mouse embryonic fibroblasts were cultured in DMEM containing 10% NCS (LifeTechnologies) and 1% PS. The cells were maintained under 5% CO2 at 37°C in a humidified atmosphere. The cells were treated with various compounds as indicated in context. The images were taken at indicated time points using a Keyence digital-microskop BZ-800.
(iPS)-Colony formation and spontaneous differentiation in HEK: 10^5 cells/well Hek 293T were seeded in a 12-well plate in 10% FCS with 1mL/well). Next day, the cells were treated with E738 (8µM). […] Afterwards, the cells were incubated further in the presence of 10% FCS and the medium was refreshed every 3 days. The spontaneous differentiation occurred after 10 days incubation.

Sox2 = assay: Immunoblot of Sox2 expression in HFF cells; type: cell-based, human; conditions: 2h
Nanog = Nanog overexpression in Nanog-GFP Hek293T cells; type: cell-based, human; conditions: 1µM E738, 24h

In the case of `COc1ccc2c(c1)C(=C1Nc3ccccc3C1=NOCC(O)CO)C(=O)N2` (stereo not drawn) [E738], the “concentration sufficient to reduce Smad1/5/8” value (Smad1/5/8) is reported as 0.5 µM, the “p- and pan-Smad1/5/8” value (Smad1/5/8; E738 0,5µM, 1µM and 5µM) is reported as “decline of both” and the “non-phosphorylation-ß-Catenin (NP-ß-Catenin, Ser33/37/Thr41)” value (ß-Catenin) is reported as “highly stabilized ß-Catenin”. For the same molecule, the “phosphorylations of MAPKs (JNK, P38, Erk1/2)” value (MAPKs (JNK, P38, Erk1/2); 1 h, increasing concentrations) was “promoted phosphorylations of JNK and P38 at the low concentraions, but not for Erk1/2”, the “p-JNK, p-P38 and pErk1/2” value (MAPKs (JNK, P38, Erk1/2); 6h after treatment) was “induced activation of P38; also recorded: clear increases of p-JNK and p-P38 were observed 6h after treatment, but not pErk1/2” and the “toxicities towards healthy cell lines, lower than towards tumor cells” value (healthy cell lines) was 20 fold. For the same molecule, the “more efficient inhibition of HeLa cells growth in response to BMP2 than FCS” value (HeLa cells) was “above 10 fold”, the “cell mobility (EMT) and cell dedifferentiation” value (Hek293T cells; Hek293T, 4 days treatment) was “enhances cell mobility (EMT) and induces cell dedifferentiation” and the “iPS-like (embryonic stem cell-like) colony formation” value (Hek293T cells; Hek 293T, E738 (8µM) 24h, floating cells washed and replated in 10% FCS for 3 days) was “embryonic stem cell-like colony appeared after 3 days; also recorded: iPS-like colonies were observed”. The EMT (Hek293T cells; Hek 293T, E738 (8µM), 24h, 10% FCS) was “a clear EMT could be observed”, the “expression of Sox2” value (Sox2) was “stimulates expression of Sox2” and the Nanog-overexpression (Nanog) was “promotes Nanog-overexpression”.

Source: patent publication EP2518139A1, “Use of indirubin derivatives for producing pluripotent stem cells” (Universitätsklinikum Jena, priority 2011, dated 2012)
